Results on nine molecules are retold here after US20260028354A1, “TETRAHYDRONAPHTHALENE DERIVATIVES AS ESTROGEN RECEPTOR DEGRADERS” (REGENT OF THE UNIVERSITY OF MICHIGAN, priority 2022, published 2026).

Where two headings read alike, the source gives them in different places.

The target in assay [1] is CRBN/DDB1 (Homo sapiens (Human), UniProt Q96SW2). In kind it is binding. As to conditions: His tagged CRBN+DDB1, Cy5-labeled Thalidomide probe, one hour; read-out: CRBN HTRF IC50. How it is done:
The binding potency was determined using HTRF assay technology (Perkin Elmer). Compounds were serially diluted in DMSO and […] volume was transferred to white 384-well plate.
For orientation: In TR-FRET formats the signal depends on donor and acceptor labels being close together.

Assay [2] has as its target ERα_LBD (GST) (Homo sapiens (Human), UniProt P03372). Briefly: IC50 measurements for binding to ERα_LBD (GST), LanthaScreen TR-FRET competitive binding. As to conditions: ERα_LBD (GST) 4 nM, Fluormone ES2 Green tracer, 60 min; read-out: ERα HTRF IC50. How it is done: In vitro Assay: IC50 Measurements for binding to ERα_LBD (GST) • Final assay conditions: • 1. ERα_LBD (GST) protein: 4 nM • 2. Tb Anti-GST: 2 nM • 3. Fluormone ES2 Green tracer: 3 nM • 4. Incubation time: 60 min • 5. DMSO: 1% • 6. Assay buffer: Adding 1M DTT to Nuclear receptor Buffer K for final 5 mM DTT. • 7. ZPE: 1% DMSO • 8. HPE: 1 μM ARV_471 (positive control) • 9. LanthaScreen® TR-FRET ERα Competitive Binding Assay (ThermoFisher, #A^15887) • 100× Compound preparation
1) Cherry pick 2 μL 10 mM compound stock to column 1 of a 384 intermediate plate. • 2) Add 18 μL DMSO to column 1 to dilute compound to 1 mM. • 3) Transfer 10 μL 1 mM compound to column 1 of a LDV plate. • 2) Add 6 μl DMSO to column 2-10 of the LDV plate. • 3) Compounds undergo 3-fold serial dilution (3 μL+6 μL) in DMSO. • 4) Transfer 120 nL compound solution to assay plate. ZPE: 120 nL 100% DMSO • Procedure:
Complete nuclear receptor buffer K was prepared by adding 1 M DTT to nuclear receptor buffer K for a final concentration of 5 mM DTT. Complete nuclear receptor buffer K must be prepared fresh daily, 2X protein solution was prepared using complete nuclear receptor buffer K containing 8 nM ERα_LBD (GST) and 4 nM Tb Anti-GST. Then, 2X Fluormone ES2 Green tracer (6 nM) was prepared using complete nuclear receptor buffer K. Add 6 μL 2X Fluormone ES2 green tracer into a compound plate (PerkinElmer 6008289) by dragonfly with one-tips-addition. Subsequently, 6 μL 2× protein solution was added into the plate. The 384-well plate was mixed on a plate shaker and incubated at room temperature protected from light for 60 min. The plate was scaled with a cover to minimize evaporation. The plate was read at wavelengths of 520 nm and 495 nm. The TR-FRET ratio was calculated by dividing the emission signal at 520 nm by the emission signal at 495 nm. A binding curve was generated by plotting the emission ratio vs, the log [ligand]. To determine the IC50 value, fit the data using XL-fit for a sigmoidal dose-response.

Assay [3] concerns the target ER in MCF-7 cells (Homo sapiens (Human), UniProt P03372). Briefly: In-cell Western (ICW) ER degradation assay in MCF-7 cells. In kind it is cell-based. As to conditions: for DC50: MCF-7, ER degradation, read-out: MCF7 DC50.
The target in assay [4] is ER in T47D cells (Homo sapiens (Human), UniProt P03372). Briefly: In-cell Western (ICW) ER degradation assay in T47D cells. As to conditions: for DC50: ER degradation. Format: cell-based.
ER in T47D cells, sequence (P03372 whole entry): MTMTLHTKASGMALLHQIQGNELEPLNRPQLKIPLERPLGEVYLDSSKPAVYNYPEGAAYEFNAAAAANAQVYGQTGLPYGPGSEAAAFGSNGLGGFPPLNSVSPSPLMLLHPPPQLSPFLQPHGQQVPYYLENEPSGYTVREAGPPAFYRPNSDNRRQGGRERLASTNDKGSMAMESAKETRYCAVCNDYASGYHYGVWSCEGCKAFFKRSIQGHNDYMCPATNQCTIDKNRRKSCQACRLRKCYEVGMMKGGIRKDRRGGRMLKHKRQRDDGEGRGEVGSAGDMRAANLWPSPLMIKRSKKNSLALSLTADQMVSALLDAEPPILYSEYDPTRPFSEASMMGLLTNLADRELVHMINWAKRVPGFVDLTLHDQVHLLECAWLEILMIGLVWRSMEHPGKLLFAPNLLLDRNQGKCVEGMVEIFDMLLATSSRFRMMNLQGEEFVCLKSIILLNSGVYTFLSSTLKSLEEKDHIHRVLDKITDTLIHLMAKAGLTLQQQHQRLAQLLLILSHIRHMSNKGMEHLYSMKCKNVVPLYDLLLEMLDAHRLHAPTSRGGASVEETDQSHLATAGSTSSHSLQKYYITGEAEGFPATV
Assay [5] deals with MCF-7 cells. Briefly: CellTiter-Glo (CTG) cell proliferation assay in MCF-7 cells. As to conditions: MCF-7 cell proliferation. In kind it is cell-based. From the text:
CellTiter-Glo® (CTG) Assays in MCF-7 and T47D Cell Lines.
In vitro Assay: MCF-7 and T47D CTG assay
(In general: Cellular ATP, detected with luciferase, serves as a proxy for viable cell number.)

Where [6] appears, read: MCF7, MCF-7, maximal ER degradation, 16 hrs treatment, read-out: MCF7 Dmax.
Setting [7] is: maximal ER degradation, 16 hrs treatment, read-out: T47D Dmax.
[8] abbreviates: Homo sapiens, MCF7, 144 h, Day 6.
[9] abbreviates: MCF7, read-out: MCF7 Dmax, MCF-7, maximal ER degradation, 16 hrs treatment.
Where [10] appears, read: read-out: T47D Dmax, T47D, maximal ER degradation, 16 hrs treatment.

CRBN/DDB1, sequence (Q96SW2 whole entry, species assumed): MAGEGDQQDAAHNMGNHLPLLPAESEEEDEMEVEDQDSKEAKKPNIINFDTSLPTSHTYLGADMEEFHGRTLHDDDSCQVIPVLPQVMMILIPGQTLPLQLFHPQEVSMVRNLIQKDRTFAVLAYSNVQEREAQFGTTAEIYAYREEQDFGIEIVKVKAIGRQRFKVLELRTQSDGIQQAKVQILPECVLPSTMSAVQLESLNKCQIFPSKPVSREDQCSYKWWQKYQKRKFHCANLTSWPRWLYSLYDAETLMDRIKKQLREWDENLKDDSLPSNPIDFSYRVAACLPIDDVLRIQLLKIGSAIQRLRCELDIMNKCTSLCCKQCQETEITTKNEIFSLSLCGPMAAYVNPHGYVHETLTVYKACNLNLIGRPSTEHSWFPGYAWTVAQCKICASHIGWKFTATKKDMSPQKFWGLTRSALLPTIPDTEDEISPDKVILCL
CRBN/DDB1, sequence (Q16531 whole entry partner, species assumed): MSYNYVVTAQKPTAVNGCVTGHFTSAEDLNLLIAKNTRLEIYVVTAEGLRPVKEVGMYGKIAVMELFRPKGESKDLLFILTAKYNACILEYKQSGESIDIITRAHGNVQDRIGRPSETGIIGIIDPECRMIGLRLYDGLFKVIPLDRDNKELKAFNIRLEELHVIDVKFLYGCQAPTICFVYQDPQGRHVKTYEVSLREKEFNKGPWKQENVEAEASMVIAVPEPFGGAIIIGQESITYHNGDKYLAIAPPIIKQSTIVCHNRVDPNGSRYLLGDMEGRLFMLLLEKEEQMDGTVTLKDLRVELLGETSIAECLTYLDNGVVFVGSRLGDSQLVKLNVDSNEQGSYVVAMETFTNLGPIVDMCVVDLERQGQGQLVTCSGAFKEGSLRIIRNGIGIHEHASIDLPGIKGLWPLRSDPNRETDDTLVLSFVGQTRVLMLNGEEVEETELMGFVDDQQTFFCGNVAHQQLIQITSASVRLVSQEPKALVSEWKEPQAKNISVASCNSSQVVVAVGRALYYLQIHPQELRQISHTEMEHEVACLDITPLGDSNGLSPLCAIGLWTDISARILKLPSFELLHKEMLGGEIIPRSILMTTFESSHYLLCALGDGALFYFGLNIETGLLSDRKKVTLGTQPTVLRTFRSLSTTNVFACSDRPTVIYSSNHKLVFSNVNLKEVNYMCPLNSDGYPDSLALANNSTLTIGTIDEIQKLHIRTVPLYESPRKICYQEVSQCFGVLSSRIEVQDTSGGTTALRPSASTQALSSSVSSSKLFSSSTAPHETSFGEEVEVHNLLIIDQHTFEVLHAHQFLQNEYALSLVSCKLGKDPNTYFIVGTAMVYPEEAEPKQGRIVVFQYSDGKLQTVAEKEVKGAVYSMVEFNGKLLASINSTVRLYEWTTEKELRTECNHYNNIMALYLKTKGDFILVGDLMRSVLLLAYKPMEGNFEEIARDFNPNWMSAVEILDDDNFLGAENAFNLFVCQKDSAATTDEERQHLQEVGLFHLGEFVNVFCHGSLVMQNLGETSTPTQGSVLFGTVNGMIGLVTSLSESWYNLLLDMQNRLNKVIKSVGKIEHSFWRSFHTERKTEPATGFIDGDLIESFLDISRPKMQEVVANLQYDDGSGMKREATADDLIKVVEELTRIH
ERα_LBD (GST), sequence (P03372 311-547): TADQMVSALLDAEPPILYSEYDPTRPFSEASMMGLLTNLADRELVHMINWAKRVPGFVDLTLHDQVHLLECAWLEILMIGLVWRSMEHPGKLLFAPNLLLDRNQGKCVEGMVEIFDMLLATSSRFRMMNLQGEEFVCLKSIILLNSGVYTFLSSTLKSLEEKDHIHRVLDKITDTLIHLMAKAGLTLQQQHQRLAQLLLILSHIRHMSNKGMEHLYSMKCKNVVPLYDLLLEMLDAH
ER in MCF-7 cells, sequence (P03372 whole entry): as the sequence (P03372 whole entry) above

For orientation: IC50 means the concentration at which inhibition is half-maximal. Usually Dmax stands for the largest share of the target that was removed. A word on the DC50: it is the concentration at which degradation of the target reaches its halfway point. On to `O=C1CC[C@H](N2Cc3c(ccc4c3OC[C@H]3CN(C[C@H]5COC6(C5)CN(c5ccc([C@@H]7c8ccc(O)cc8CC[C@@H]7c7ccccc7)cc5)C6)CCN43)C2=O)C(=O)N1` (single isomer, unassigned) [Compound A68], for which the values for the IC50 in assay [1], in assay [2] and in assay [5] (setting [8]) were below 0.05 µM, below 0.01 µM and 0.01 to 0.1 µM, respectively. Further, the Dmax in assay [3] (setting [6]) was 50 to 75%; in assay [4] (setting [7]) it was above 75%. Moreover, the 50% degradation concentration (DC50) in assay [3] (16 hrs treatment) and in assay [4] (16 hrs treatment) was below 0.001 µM throughout.
Regarding `COc1cc(N2CCC(CN3CCN4c5ccc6c(c5OC[C@@H]4C3)CN([C@@H]3CCC(=O)NC3=O)C6=O)CC2)ccc1[C@H]1c2ccc(O)cc2CC[C@H]1c1ccccc1` (stereo in doubt) [Compound A24, (R)-3-((S)-7-((1-(4-((1R,2R)-6-hydroxy-2-phenyl-1,2,3,4-tetrahydronaphthalen-1-yl)-3-methoxyphenyl)piperidin-4-yl)methyl)-1-oxo-1,3,5,5a,6,7,8,9-oCtahydro-2H-pyrazino [1′,2′:4,5][1,4]oxazino[2,3-e]isoindol-2-yl)piperidine-2,6-dione], the half-inhibitory concentration (IC50) in assay [1] was 0.05 to 0.5 µM; in assay [2] it was below 0.01 µM; in assay [5] (setting [8]), 0.01 to 0.1 µM. Also, the Dmax in assay [3] (setting [6]) and in assay [4] (setting [7]) was above 75% in each case. The DC50 in assay [3] (16 hrs treatment) and in assay [4] (16 hrs treatment) was below 0.001 µM each time.
Regarding `O=C1CC[C@H](N2Cc3cc4c(cc3C2=O)OCC42CCN(C[C@@H]3COC4(CCN(c5ccc([C@H]6c7ccc(O)cc7CC[C@H]6c6ccccc6)cc5)CC4)C3)CC2)C(=O)N1` [Compound A25, (S)-3-(1′-(((R)-8-(4-((1S,2R)-6-hydroxy-2-phenyl-1,2,3,4-tetrahydronaphthalen-1-yl)phenyl)-1-oxa-8-azaspiro[4.5]decan-3-yl)methyl)-7-oxo-5,7-dihydro-2H,6H-spiro[furo[2,3-f]isoindole-3,4′-piperidin]-6-yl)piperidine-2,6-dione], the IC50 in assay [2] and in assay [5] (setting [8]) was below 0.01 µM each time. Also, the greatest degradation seen (Dmax) in assay [3] (setting [9]) and in assay [4] (setting [10]) was above 75% in each case. Further, the DC50 in assay [3] (16 hrs treatment) and in assay [4] (16 hrs treatment) was below 0.001 µM each time.
Turning to `O=C1CC[C@H](N2Cc3c(ccc4c3OC[C@H]3CN(CC5CCN(c6ccc([C@@H]7c8ccc(O)cc8CC[C@@H]7c7ccccc7)cc6)CC5)CCN43)C2=O)C(=O)N1` [Compound A71, (S)-3-((R)-7-((1-(4-((1R,2S)-6-hydroxy-2-phenyl-1,2,3,4-tetra-hydronaphthalen-1-yl)phenyl)-piperidin-4-yl)methyl)-1-oxo-1,3,5,5a,6,7,8,9-octahydro-2H-pyrazino[1′,2′:4,5][1,4]oxazino [2,3-e]isoindol-2-yl)piperidine-2,6-dione], the 50% inhibitory concentration (IC50) is 0.05 to 0.5 µM in assay [1], below 0.01 µM in assay [2] and below 0.01 µM in assay [5] (setting [8]). Besides, the Dmax in assay [3] (setting [6]) was above 75%. The half-maximal degradation concentration (DC50) in assay [3] (16 hrs treatment) is below 0.001 µM.
Turning to `O=C1CC[C@H](N2Cc3cc4c(cc3C2=O)OC[C@@H]2CN(C[C@H]3COC5(C3)CN(c3ccc([C@@H]6c7ccc(O)cc7CC[C@@H]6c6ccccc6)cc3)C5)CCN42)C(=O)N1` [Compound A72, (S)-3-((S)-3-(((S)-2-(4-((1R, 2S)-6-hydroxy-2-phenyl-1,2,3,4-tetrahydronaphthalen-1-yl)phenyl)-5-oxa-2-azaspiro [3.4]octan-7-yl)methyl)-8-oxo-1,2,3,4,4a,5,8,10-octahydro-9H-pyrazino[1′,2′:4,5][1,4]oxazino[2,3-f]isoindol-9-yl)-piperidine-2,6-dione], the half-maximal inhibitory concentration (IC50) in assay [1] is 0.05 to 0.5 µM; in assay [2] it was below 0.01 µM; in assay [5] (setting [8]), below 0.01 µM. Besides, the maximal degradation (Dmax) in assay [3] (setting [6]) was 50 to 75%; in assay [4] (setting [7]), above 75%. Moreover, the half-maximal degradation concentration (DC50) in assay [3] (16 hrs treatment) and in assay [4] (16 hrs treatment) was below 0.001 µM in each case.
For `O=C1CC[C@H](N2Cc3cc4c(cc3C2=O)OC[C@@H]2CN(C[C@@H]3COC5(C3)CN(c3ccc([C@@H]6c7ccc(O)cc7CC[C@@H]6c6ccccc6)cc3)C5)CCN42)C(=O)N1` [Compound A73, (S)-3-((S)-3-(((R)-2-(4-((1R,2S)-6-hydroxy-2-phenyl-1,2,3,4-tetrahydronaphthalen-1-yl)phenyl)-5-oxa-2-azaspiro[3.4]octan-7-yl)methyl)-8-oxo-1,2,3,4,4a,5,8,10-octahydro-9H-pyrazino[1′,2′:4,5][1,4]oxazino[2,3-f]isoindol-9-yl)piperidine-2,6-dione], the concentration for half-maximal inhibition (IC50) in assay [1] was 0.5 to 5 µM; in assay [2], below 0.01 µM; in assay [5] (setting [8]), 0.01 to 0.1 µM. Also, the maximal degradation (Dmax) in assay [3] (setting [6]) and in assay [4] (setting [7]) was above 75% in each case. In addition, the 50% degradation concentration (DC50) in assay [3] (16 hrs treatment) and in assay [4] (16 hrs treatment) was below 0.001 µM each time.
Turning to `O=C1CC[C@H](N2Cc3c(ccc4c3OCC43CCN(CC4CC5(CCN(c6ccc([C@@H]7c8ccc(O)cc8CC[C@@H]7c7ccccc7)cn6)CC5)C4)CC3)C2=O)C(=O)N1` [Compound A116, (S)-3-(1′-((7-(5-((1S,2S)-6-hydroxy-2-phenyl-1,2,3,4-tetra-hydronaphthalen-1-yl)pyridin-2-yl)-7-azaspiro[3.5]nonan-2-yl)methyl)-6-oxo-6,8-dihydro-2H,7H-spiro[furo[2,3-e]iso-indole-3,4′-piperidin]-7-yl)-piperidine-2,6-dione], the IC50 in assay [1] is below 0.05 µM; in assay [2], below 0.01 µM. Besides, the Dmax in assay [3] (setting [9]) is 50 to 75%; in assay [4] (setting [10]), above 75%. Further, the DC50 in assay [3] (16 hrs treatment) and in assay [4] (16 hrs treatment) was below 0.001 µM each time.
In the case of `O=C1CC[C@H](N2Cc3c(ccc4c3OCC43CCN(CC4CCC5(CC4)CN(c4ncc([C@@H]6c7ccc(O)cc7CC[C@@H]6c6ccccc6)cn4)C5)CC3)C2=O)C(=O)N1` [Compound A154, (S)-3-(1′-((2-(5-((1S,2S)-6-hydroxy-2-phenyl-1,2,3,4-tetrahydronaphthalen-1-yl)pyrimidin-2-yl)-2-azaspiro[3.5]nonan-7-yl)methyl)-6-oxo-6,8-dihydro-2H,7H-spiro[furo[2,3-e]isoindole-3,4′-piperidin]-7-yl)piperidine-2,6-dione], the figures for the IC50 in assay [1] and in assay [2] were below 0.05 µM and below 0.01 µM, respectively. In addition, the greatest degradation seen (Dmax) is 50 to 75% in assay [3] (setting [9]) and above 75% in assay [4] (setting [10]). The DC50 in assay [3] (16 hrs treatment) and in assay [4] (16 hrs treatment) was below 0.001 µM throughout.
“(S)-3-(1′-(((S)-2-(4-((1R,2S)-6- hydroxy-2-phenyl-1,2,3,4- tetrahydronaphthalen-1- yl)phenyl)-5-oxa-2- azaspiro[3.4]octan-7-yl)methyl)- 7-oxo-5,7-dihydro-2H,6H- spiro[furo[2,3-f]isoindole-3,4′- piperidin]-6-yl)piperidine-2,6- dione [Compound A76]”: the IC50 in assay [1] is 0.05 to 0.5 µM; in assay [2], below 0.01 µM; in assay [5] (Day 6, read-out: MCF7 IC50) it was below 0.01 µM. Also, the DC50 in assay [3] (16 hrs treatment) was below 0.001 µM. In assay [3] (MCF-7, maximal ER degradation, 16 hrs treatment), the “MCF7 Dmax” value was “A (“A”: >=75%)”.
